Test results: US12215116B2, “Arginase inhibitors and methods of use” (Merck Sharp & Dohme LLC, priority 2018, dated 2025)

Biological target: T1, Arginase (ARG1 enzyme) (Homo sapiens, UniProt P05089)
T1 construct: made in house; host or cells: Escherichia coli
T1 sequence (P05089 1-322): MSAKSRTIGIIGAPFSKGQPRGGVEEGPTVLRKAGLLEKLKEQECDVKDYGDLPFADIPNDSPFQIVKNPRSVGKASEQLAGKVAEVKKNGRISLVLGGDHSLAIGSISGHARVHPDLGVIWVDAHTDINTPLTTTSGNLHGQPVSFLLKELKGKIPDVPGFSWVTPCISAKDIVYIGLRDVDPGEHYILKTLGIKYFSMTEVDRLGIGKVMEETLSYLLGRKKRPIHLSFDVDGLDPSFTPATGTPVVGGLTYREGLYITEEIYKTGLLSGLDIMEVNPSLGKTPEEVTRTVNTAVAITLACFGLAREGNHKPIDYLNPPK
Assay: Arginase Thioornithine Generating Assay (TOGA)
Assay type: biochemical
Conditions: 1.88 nM arginase, thioarginine substrate, fluorescence readout
Method: Arginase Thioornithine Generating Assay (TOGA)
Compounds were serially diluted in ten 3-fold steps in DMSO starting from 10 mM DMSO stocks. Compound dilutions or DMSO alone were then dispensed from the dilution plate into a Greiner black 384-well assay plate (catalog #781086) using an Echo 555 acoustic liquid handler (Labcyte).
Arginase protein was recombinantly expressed in Escherichia coli. Purified protein was then diluted in assay buffer (50 mM Tris pH 7.5, 50 mM NaCl, 1 mM manganese chloride, 0.05% bovine serum albumin to obtain a final Arginase concentration of 1.88 nM. Arginase solution (20 μL) or buffer alone (20 μL) were dispensed to wells of the assay plate using a BioRAPTR liquid dispenser (Beckman Coulter). Assay plates containing compound and ARG1 enzyme were incubated at room temperature for 30 minutes. Afterwards, 5 μL of 2.5 mM thioarginine (Cayman Chemicals) in assay buffer were added to each well of the assay plate using a BioRAPTR liquid dispenser. Plates were incubated at room temperature for 60 minutes and reactions were quenched by addition of 15 μL of […] 7-Diethylamine-3-(4-maleimidophenyl)-4-methylcoumarin (Sigma Chemical) in 70% ethanol. Plates were briefly shaken to mix and the fluorescence was measured in an Spectramax plate reader (Molecular Devices) with a 410 nm excitation wavelength and an 490 nm emission wavelength.
Potencies were calculated by […] to the four parameter logistic IC50 equation.

Compound	IC50
O=C(O)[C@H]1NC[C@H]1CCCB(O)O [Example 8B, (2S,3R)-3-[3-(dihydroxyboranyl)propyl]azetidine-2-carboxylic acid]	0.447 µM
C[C@@]1(CCCB(O)O)[C@H](O)CN[C@@H]1C(=O)O [Example 69, (2S,3S,4S)-3-(3-boronopropyl)-4-hydroxy-3-methylpyrrolidine-2-carboxylic acid]	> 10 µM
O=C(O)C[C@@]1(CCCB(O)O)[C@H](O)CN[C@@H]1C(=O)O [Example 90, (2S,3R,4S)-3-(3-boronopropyl)-3-(carboxymethyl)-4-hydroxypyrrolidine-2-carboxylic acid]	2.91 µM
OCC1NCCC1CCCB(O)O (stereo not drawn) [Example 12, {3-[2-(hydroxymethyl)pyrrolidin-3-yl]propyl}boronic acid]	3.81 µM
NC1CN[C@H](C(=O)O)C1CCCB(O)O (single isomer, unassigned) [Example 33A]	> 10 µM
O=C(O)[C@]1(CCN2CCCCC2)CC(CCB(O)O)CN1 (stereo partly drawn) [Example 19, 4-[2-(dihydroxyboranyl)ethyl]-2-[2-(piperidin-1-yl)ethyl]proline]	5.37 µM
NC(=O)[C@@]1(CCCB(O)O)CCN[C@@H]1C(=O)O [Example 89, (2S,3S)-3-(3-boronopropyl)-3-carbamoylpyrrolidine-2-carboxylic acid]	0.289 µM
O=C(O)[C@H]1NCC[C@@H]1CCCB(O)O [Example 15B, (3S)-3-[3-(dihydroxyboranyl)propyl]-L-proline]	0.413 µM
CO[C@H]1CN[C@H](C(=O)O)[C@@H]1CCCB(O)O [Example 36, (2S,3S,4R)-3-(3-boronopropyl)-4-methoxypyrrolidine-2-carboxylic acid]	0.0461 µM
O=C(O)C1CNCC1CCCB(O)O (single isomer, unassigned) [Example 21D, 4-[3-(dihydroxyboranyl)propyl]pyrrolidine-3-carboxylic acid]	1.52 µM
O=C(O)[C@@H]1CC(CCB(O)O)CN1 (stereo partly drawn) [Example 18, 4-[2-(dihydroxyboranyl)ethyl]proline]	8.73 µM
O=C(O)[C@H]1NC[C@@H](O)[C@@]1(F)CCCB(O)O [Example 92A, (2R,3R,4R)-3-(3-boronopropyl)-3-fluoro-4-hydroxypyrrolidine-2-carboxylic acid]	> 10 µM
NC1(C(=O)O)CNCC1(CO)CCCB(O)O (single isomer, unassigned) [Example 94A, 3-amino-4-(3-boronopropyl)-4-(hydroxymethyl)pyrrolidine-3-carboxylic acid]	3.08 µM
CC(C)(O)[C@@]1(CCCB(O)O)CN[C@@H]1C(=O)O [Example 68, (2S,3S)-3-(3-boronopropyl)-3-(2-hydroxypropan-2-yl)azetidine-2-carboxylic acid]	0.343 µM
O=C(O)[C@@H]1NCC[C@H]1CCCB(O)O [Example 15A, (3R)-3-[3-(dihydroxyboranyl)propyl]-D-proline]	> 10 µM
O=C(O)C1(CCN2CCCCC2)CC(CCB(O)O)CCN1 (stereo not drawn) [Example 5, 4-[2-(dihydroxyboranyl)ethyl]-2-[2-(piperidin-1-yl)ethyl]piperidinyl-2-carboxylic acid]	1.33 µM
NC1(C(=O)O)CNCC1(CO)CCCB(O)O (single isomer, unassigned) [Example 94B]	0.94 µM

Results, then the compound that gave them:

IC50	Compound
0.085 µM	C[C@@]1(CCCB(O)O)[C@@H](CN)CN[C@@H]1C(=O)O [Example 77, (2S,3R,4S)-4-(aminomethyl)-3-(3-boronopropyl)-3-methylpyrrolidine-2-carboxylic acid]
0.00209 µM	CC(C)[C@H](N)C(=O)N[C@H]1CN[C@H](C(=O)O)[C@@H]1CCCB(O)O [Example 37, (2S,3R,4R)-4-((S)-2-amino-3-methylbutanamido)-3-(3-boronopropyl)pyrrolidine-2-carboxylic acid]
0.151 µM	CC1(C)[C@H]2C[C@@H]3OB(CCC[C@]4(C)CCN[C@@H]4C(=O)O)O[C@]3(C)[C@@H]1C2 [Example 22, (2S,3R)-3-methyl-3-(3-((3aR,4R,6R,7aS)-3a,5,5-trimethylhexahydro-4,6-methanobenzo[d][1,3,2]dioxaborol-2-yl)propyl)pyrrolidine-2-carboxylic acid]
0.013 µM	O=C(O)[C@H]1NC[C@@]1(CO)CCCB(O)O [Example 65, (2S,3S)-3-(3-boronopropyl)-3-(hydroxymethyl)azetidine-2-carboxylic acid]
0.00158 µM	CC(C)C[C@H](N)C(=O)N[C@H]1CN[C@H](C(=O)O)[C@@H]1CCCB(O)O [Example 42, (2S,3R,4R)-4-((S)-2-amino-4-methylpentanamido)-3-(3-boronopropyl)pyrrolidine-2-carboxylic acid]
0.0663 µM	CNC[C@H]1CN[C@H](C(=O)O)[C@]1(C)CCCB(O)O [Example 79]
0.0273 µM	C[C@@]1(CCCB(O)O)[C@@H](CO)CN[C@@H]1C(=O)O [Example 80, (2S,3R,4R)-3-(3-boronopropyl)-4-(hydroxymethyl)-3-methylpyrrolidine-2-carboxylic acid]
0.00771 µM	O=C(O)[C@H]1N[C@H](CO)C[C@H]1CCCB(O)O [Example 63, (2S,3R,5S)-3-(3-boronopropyl)-5-(hydroxymethyl)pyrrolidine-2-carboxylic acid]
0.00669 µM	NCCN[C@H]1CN[C@H](C(=O)O)[C@@H]1CCCB(O)O [Example 31, (2S,3R,4R)-4-((2-aminoethyl)amino)-3-(3-boronopropyl)pyrrolidine-2-carboxylic acid]
0.0159 µM	O=C(O)[C@@]1(CCN2CCCC2)NCC[C@H]1CCCB(O)O [Example 55]
0.0295 µM	NC[C@@H]1C[C@@H](CCCB(O)O)[C@@H](C(=O)O)N1 [Example 60A, (2S,3R,5S)-5-(aminomethyl)-3-(3-boronopropyl)pyrrolidine-2-carboxylic acid]
0.0208 µM	O=C(O)[C@@]1(CCN2CCC2)NCC[C@H]1CCCB(O)O [Example 56]

System: rabbit and human penile corpus cavernosum
Assay: not given
Conditions: rabbit and human tissue; cited from earlier work

Compound	nitric oxide-dependent relaxation of penile corpus cavernosum
N[C@@H](CCCCB(O)O)C(=O)O [ABH, (S)-2-amino-6-boronohexanoic acid]	enhances the nitric oxide-dependent relaxation of this tissue

System: animal model of multiple sclerosis (experimental autoimmune encephalomyelitis)
Assay: not given
Conditions: cited from earlier work

Compound	disease score
N[C@@H](CCCCB(O)O)C(=O)O [ABH, (S)-2-amino-6-boronohexanoic acid]	improves the disease score

System: opossum internal anal sphincter muscle
Assay: not given
Conditions: cited from earlier work

Compound	relaxation of internal anal sphincter muscle
N[C@@H](CCCCB(O)O)C(=O)O [ABH, (S)-2-amino-6-boronohexanoic acid]	relax this muscle

System: guinea pigs
Assay: not given
Conditions: nebulizer treatment, allergic asthma model; cited from earlier work

Compound	airway hyperresponsiveness
N[C@@H](CCCCB(O)O)C(=O)O [ABH, (S)-2-amino-6-boronohexanoic acid]	prevents airway hyperresponsiveness

System: live male rabbits
Assay: not given
Conditions: cited from earlier work

Compound	erectile response
N[C@@H](CCCCB(O)O)C(=O)O [ABH, (S)-2-amino-6-boronohexanoic acid]	enhances the erectile response

System: corpus cavernosum of the diabetic man
Assay: not given
Conditions: ex vivo; cited from earlier work

Compound	nitric oxide biosynthesis
N[C@@H](CCCCB(O)O)C(=O)O [ABH, (S)-2-amino-6-boronohexanoic acid]	restores nitric oxide biosynthesis

System: live female rabbits
Assay: not given
Conditions: cited from earlier work

Compound	engorgement response in the genitalia
N[C@@H](CCCCB(O)O)C(=O)O [ABH, (S)-2-amino-6-boronohexanoic acid]	enhances the engorgement response
